Measured values published in patent US8431565B2 (priority 2007, dated 2013).

What was measured:
[1] = molecular target: human CB1 receptor (hCB1) (Homo sapiens, UniProt P21554); assay type: cell-based
[2] = molecular target: T1, rat CB2 receptor (rCB2) (Rattus norvegicus, UniProt Q9QZN9)
T1 sequence (Q9QZN9 1-360): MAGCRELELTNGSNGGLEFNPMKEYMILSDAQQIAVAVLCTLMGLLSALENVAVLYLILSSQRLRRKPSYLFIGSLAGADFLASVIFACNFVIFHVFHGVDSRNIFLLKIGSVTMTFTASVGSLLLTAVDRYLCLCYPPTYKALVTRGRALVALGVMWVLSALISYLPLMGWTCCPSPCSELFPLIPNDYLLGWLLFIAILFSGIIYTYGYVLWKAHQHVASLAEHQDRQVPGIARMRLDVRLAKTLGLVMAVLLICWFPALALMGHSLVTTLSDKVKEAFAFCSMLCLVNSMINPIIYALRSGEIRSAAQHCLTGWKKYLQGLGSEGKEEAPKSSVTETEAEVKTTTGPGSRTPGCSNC

Sequence of human CB1 receptor (hCB1) (P21554 whole entry): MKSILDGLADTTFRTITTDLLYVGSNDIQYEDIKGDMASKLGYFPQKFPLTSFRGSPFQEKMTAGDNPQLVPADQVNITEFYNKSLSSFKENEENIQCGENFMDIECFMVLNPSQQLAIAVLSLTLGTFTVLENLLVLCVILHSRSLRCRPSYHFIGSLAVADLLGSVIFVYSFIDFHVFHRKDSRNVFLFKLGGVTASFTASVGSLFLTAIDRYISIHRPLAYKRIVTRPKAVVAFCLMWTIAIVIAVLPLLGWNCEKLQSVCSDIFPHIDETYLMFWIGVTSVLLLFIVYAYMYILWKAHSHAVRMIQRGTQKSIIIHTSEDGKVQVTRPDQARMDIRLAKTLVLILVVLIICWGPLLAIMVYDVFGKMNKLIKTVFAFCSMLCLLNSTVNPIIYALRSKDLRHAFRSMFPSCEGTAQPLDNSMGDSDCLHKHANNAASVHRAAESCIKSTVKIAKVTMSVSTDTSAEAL

Structure (SMILES)	EC50 [1] [µM]	EC50 [2] [µM]
CN1CCn2c(-c3ccc(Cl)cc3F)nc(C(=O)N3CCC4(CCNC4=O)CC3)c2C1 [Compound 220, 8-(3-(4-chloro-2-fluorophenyl)-7-methyl-5,6,7,8-tetrahydroimidazo[1,5-a]pyrazine-1-carbonyl)-2,8-diazaspiro[4.5]decan-1-one]	> 10	> 10
CN1CCCn2c(-c3cc(Cl)ccc3F)nc(C(=O)N[C@H](CNS(C)(=O)=O)C(C)(C)C)c2C1 [Compound 771, (S)-3-(5-chloro-2-fluorophenyl)-N-(3,3-dimethyl-1-(methylsulfonamido)butan-2-yl)-8-methyl-6,7,8,9-tetrahydro-5H-imidazo[1,5-a][1,4]diazepine-1-carboxamide]	> 10	–
CC1CN(C(=O)c2nc(-c3cc(F)c(F)cc3F)n3c2CN(C)CCC3)CC(C)O1 (stereo not drawn) [Compound 854, (2,6-dimethylmorpholino)(8-methyl-3-(2,4,5-trifluorophenyl)-6,7,8,9-tetrahydro-5H-imidazo[1,5-a][1,4]diazepin-1-yl)methanone]	> 10	–
CC1CCN(CC(C)(C)NC(=O)c2nc(-c3cc(Cl)c(F)cc3F)n3c2CN(C)CCC3)CC1 [Compound 880, 3-(5-chloro-2,4-difluorophenyl)-8-methyl-N-(2-methyl-1-(4-methylpiperidin-1-yl)propan-2-yl)-6,7,8,9-tetrahydro-5H-imidazo[1,5-a][1,4]diazepine-1-carboxamide]	> 10	–
CNC(=O)[C@@H](NC(=O)c1nc(-c2cc(F)c(F)cc2F)n2c1CN(C(C)=O)CCC2)C(C)(C)C [Compound 818, (S)-8-acetyl-N-(3,3-dimethyl-1-(methylamino)-1-oxobutan-2-yl)-3-(2,4,5-trifluorophenyl)-6,7,8,9-tetrahydro-5H-imidazo[1,4]diazepine-1-carboxamide]	> 10	–
CNC(=O)[C@@H](NC(=O)c1nc(-c2ccc(C(C)=O)s2)n2c1CN(C)CCC2)C(C)(C)C [Compound 704, (S)-3-(5-acetylthiophen-2-yl)-N-(3,3-dimethyl-1-(methylamino)-1-oxobutan-2-yl)-8-methyl-6,7,8,9-tetrahydro-5H-imidazo[1,5-a][1,4]diazepine-1-carboxamide]	> 10	–
CNC(=O)[C@@H](NC(=O)c1nc(-c2cccnc2Cl)n2c1CN(C)CCC2)C(C)(C)C [Compound 628, (S)-3-(2-chloropyridin-3-yl)-N-(3,3-dimethyl-1-(methylamino)-1-oxobutan-2-yl)-8-methyl-6,7,8,9-tetrahydro-5H-imidazo[1,5-a][1,4]diazepine-1-carboxamide]	> 10	–
CNC(=O)[C@@H](NC(=O)c1nc(-c2cnn(CC(C)C)c2)n2c1CN(C)CCC2)C(C)(C)C [Compound 710, (S)-N-(3,3-dimethyl-1-(methylamino)-1-oxobutan-2-yl)-3-(1-isobutyl-1H-pyrazol-4-yl)-8-methyl-6,7,8,9-tetrahydro-5H-imidazo[1,5-a][1,4]diazepine-1-carboxamide]	> 10	–
CNC(=O)[C@@H](NC(=O)c1nc(-c2ccc(=O)[nH]c2)n2c1CN(C)CCC2)C(C)(C)C [Compound 645, (S)-N-(3,3-dimethyl-1-(methylamino)-1-oxobutan-2-yl)-8-methyl-3-(6-oxo-1,6-dihydropyridin-3-yl)-6,7,8,9-tetrahydro-5H-imidazo[1,5-a][1,4]diazepine-1-carboxamide]	> 10	–
CN1CCCn2c(-c3cc(F)c(F)cc3F)nc(C(=O)N3CC(O)C3)c2C1 [Compound 856, (3-hydroxyazetidin-1-yl)(8-methyl-3-(2,4,5-trifluorophenyl)-6,7,8,9-tetrahydro-5H-imidazo[1,5-a][1,4]diazepin-1-yl)methanone]	> 10	–
CN1CCCn2c(-c3cc(Cl)ccc3F)nc(C(=O)N[C@H](CN3CCCC3=O)C(C)(C)C)c2C1 [Compound 769, (S)-3-(5-chloro-2-fluorophenyl)-N-(3,3-dimethyl-1-(2-oxopyrrolidin-1-yl)butan-2-yl)-8-methyl-6,7,8,9-tetrahydro-5H-imidazo[1,5-a][1,4]diazepine-1-carboxamide]	> 10	–
CN1CCN(CC(C)(C)NC(=O)c2nc(-c3cc(Cl)c(F)cc3F)n3c2CN(C)CCC3)CC1 [Compound 879, 3-(5-chloro-2,4-difluorophenyl)-8-methyl-N-(2-methyl-1-(4-methylpiperazin-1-yl)propan-2-yl)-6,7,8,9-tetrahydro-5H-imidazo[1,5-a][1,4]diazepine-1-carboxamide]	> 10	–
CNC(=O)[C@@H](NC(=O)c1nc(-c2ccc(C(F)(F)F)cc2C(F)(F)F)n2c1CN(C)CCC2)C(C)(C)C [Compound 617, (S)-3-(2,4-bis(trifluoromethyl)phenyl)-N-(3,3-dimethyl-1-(methylamino)-1-oxobutan-2-yl)-8-methyl-6,7,8,9-tetrahydro-5H-imidazo[1,5-a][1,4]diazepine-1-carboxamide]	> 10	–
CNC(=O)[C@@H](NC(=O)c1nc(-c2cnn(S(=O)(=O)c3ccccc3)c2)n2c1CN(C)CCC2)C(C)(C)C [Compound 776, (S)-N-(3,3-dimethyl-1-(methylamino)-1-oxobutan-2-yl)-8-methyl-3-(1-(phenylsulfonyl)-1H-pyrazol-4-yl)-6,7,8,9-tetrahydro-5H-imidazo[1,5-a][1,4]diazepine-1-carboxamide]	> 10	–
CN1CCCn2c(-c3cc(Cl)c(F)cc3F)nc(C(=O)N3CCC(F)(F)C3)c2C1 [Compound 824, (3-(5-chloro-2,4-difluorophenyl)-8-methyl-6,7,8,9-tetrahydro-5H-imidazo[1,5-a][1,4]diazepin-1-yl)(3,3-difluoropyrrolidin-1-yl)methanone]	> 10	–
CN1CCCn2c(-c3cc(Cl)ccc3F)nc(C(=O)N[C@H](CN)C(C)(C)C)c2C1 [Compound 768, (S)-N-(1-amino-3,3-dimethylbutan-2-yl)-3-(5-chloro-2-fluorophenyl)-8-methyl-6,7,8,9-tetrahydro-5H-imidazol[1,5-a][1,4]diazepine-1-carboxamide]	> 10	–
CN1CCCn2c(-c3cc(Cl)c(F)cc3F)nc(C(=O)N3CC(F)(F)C3)c2C1 [Compound 823, (3-(5-chloro-2,4-difluorophenyl)-8-methyl-6,7,8,9-tetrahydro-5H-imidazo[1,5-a][1,4]diazepin-1-yl)(3,3-difluoroazetidin-1-yl)methanone]	> 10	–
CNC(=O)[C@@H](NC(=O)c1nc(C2CCN(S(=O)(=O)C(C)C)CC2)n2c1CN(C)CCC2)C(C)(C)C [Compound 775, (S)-N-(3,3-dimethyl-1-(methylamino)-1-oxobutan-2-yl)-3-(1-(isopropylsulfonyl)piperidin-4-yl)-8-methyl-6,7,8,9-tetrahydro-5H-imidazo[1,5-a][1,4]diazepine-1-carboxamide]	> 10	–
CN1CCCn2c(-c3cc(F)c(F)cc3F)nc(C(=O)N3CCC4(CCNC4=O)CC3)c2C1 [Compound 787, 8-(8-methyl-3-(2,4,5-trifluorophenyl)-6,7,8,9-tetrahydro-5H-imidazo[1,5-a][1,4]diazepine-1-carbonyl)-2,8-diazaspiro[4.5]decan-1-one]	> 10	–
CNC(=O)[C@@H](NC(=O)c1nc(-c2cccnc2C)n2c1CN(C)CCC2)C(C)(C)C [Compound 640, (S)-N-(3,3-dimethyl-1-(methylamino)-1-oxobutan-2-yl)-8-methyl-3-(2-methylpyridin-3-yl)-6,7,8,9-tetrahydro-5H-imidazo[1,5-a][1,4]diazepine-1-carboxamide]	> 10	–
CNC(=O)[C@H]1CCN(C(=O)c2nc(-c3cc(Cl)c(F)cc3F)n3c2CN(C)CCC3)C1 [Compound 809, (S)-1-(3-(5-chloro-2,4-difluorophenyl)-8-methyl-6,7,8,9-tetrahydro-5H-imidazo[1,5-a][1,4]diazepine-1-carbonyl)-N-methylpyrrolidine-3-carboxamide]	> 10	–
CNC(=O)[C@@H](NC(=O)c1nc(-c2ccnc(C)c2)n2c1CN(C)CCC2)C(C)(C)C [Compound 638, (S)-N-(3,3-dimethyl-1-(methylamino)-1-oxobutan-2-yl)-8-methyl-3-(2-methylpyridin-4-yl)-6,7,8,9-tetrahydro-5H-imidazo[1,5-a][1,4]diazepine-1-carboxamide]	> 10	–
CC(C)(C)[C@H](NC(=O)c1nc(-c2ccccc2)n2c1CNCC2)C(=O)N1CCOCC1 [Compound 733, (S)-N-(3,3-dimethyl-1-morpholino-1-oxobutan-2-yl)-3-phenyl-5,6,7,8-tetrahydroimidazo[1,5-a]pyrazine-1-carboxamide]	> 10	–
CC(C)(C)[C@H](NC(=O)c1nc(-c2ccccc2)n2c1CNCC2)C(=O)NCCF [Compound 731, (S)-N-(1-(2-fluoroethylamino)-3,3-dimethyl-1-oxobutan-2-yl)-3-phenyl-5,6,7,8-tetrahydroimidazo[1,5-a]pyrazine-1-carboxamide]	> 10	–
CNC(=O)[C@H](CC(C)(C)C)NC(=O)c1nc(-c2ccc(F)c(Cl)c2)n2c1CN(C)CCC2 [Compound 546, (S)-3-(3-chloro-4-fluorophenyl)-N-(4,4-dimethyl-1-(methylamino)-1-oxopentan-2-yl)-8-methyl-6,7,8,9-tetrahydro-5-imidazo[1,5-a][1,4]diazepine-1-carboxamide]	> 10	–
CN1CCCn2c(-c3cc(Cl)ccc3F)nc(C(=O)N[C@H](C(=O)N[C@H]3CN4CCC3CC4)C(C)(C)C)c2C1 [Compound 744, 3-(5-chloro-2-fluorophenyl)-N-((S)-3,3-dimethyl-1-oxo-1-((R)-quinuclidin-3-ylamino)butan-2-yl)-8-methyl-6,7,8,9-tetrahydro-5H-imidazo[1,5-a][1,4]diazepine-1-carboxamide]	> 10	–
